Earlier results, collected in patent publication US20070287755A1, “Orally administered compound for preventing neonatal hemorrhages, in a tardy form, caused by a K-vitamin dificiency” (priority 2006, published 2007).

What was measured:
[1] = only if a suitable amount of biliar salts is present; lymphatic ways, proximal small intestine
[2] = test system: tardy hemorrhagic disease; conditions: repeated oral doses of 25 micrograms/day, breast-fed newborn babies
[3] = human person, after 72 hours

Row | Compound | absorption through the gastrointestinal tract [1] | prophylaxis of tardy hemorrhagic disease [2] | presence in blood [3]
1 | CC1=C(C/C=C(\C)CCC[C@H](C)CCC[C@H](C)CCCC(C)C)C(=O)c2ccccc2C1=O [Phytonadion] | nearly fully absorbed |  | 
2 | K-vitamin |  | efficient for a full prophylaxis | practically absent in blood
